Laboratory results as given in US20230391772A1, “METHODS AND COMPOSITIONS FOR TARGETED PROTEIN DEGRADATION” (Ranok Therapeutics (Hangzhou) Co. Ltd., priority 2020, published 2023).

Tests used:
[1] = tested on: MIA PaCa-2 human pancreatic carcinoma; assay: MIA PaCa-2 CCK-8 proliferation assay; format: cell-based; details: MIA PaCa-2 cells
How it was run: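 KRAS(G12C) lines were used: MIA PaCa-2 with 2 copies, and NCI-H358 and NCI-H23 with 1 copy each. Cells were treated with 3-fold compound dilutions from 20 μM to 1.02 nM, and proliferation was read by CCK-8 absorbance. % inhibition was calculated against DMSO-treated cells after subtracting the cell-free medium blank.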

KRAS(G12C) [2] = target: T1, KRAS(G12C) (Homo sapiens, UniProt P01116, G12C); assay: KRAS(G12C)/SOS1 homogeneous time-resolved fluorescence (HTRF) assay; set-up: purchased Cisbio 63ADK000CB16PEG; details: absence of GTP, 4° C. for 3 hr, read-out: KRAS (G12C) binding
How it was run: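 Three-hour incubation at 4 °C of 3-fold compound dilutions (lowest 1.02 nM) with KRAS(G12C), SOS1 and detection reagents, GTP absent. Disruption of the KRAS(G12C)/SOS1 complex detected by time-resolved fluorescence.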

KRAS(G12C) [3] = target: T1, KRAS(G12C); assay: KRAS(G12C) Western blot protein degradation assay in LU65A cells; format: cell-based; set-up: LU65A human lung cancer cell line, which expresses KRAS(G12C); host or cells: LU65A; details: 6 hr
How it was run: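 KRAS levels read by fluorescent Western blot (β-actin as reference) on BCA-normalized lysates. Exposure to a compound concentration range at 37 °C lasted 6 hr in LU65A and 48 hr in MIA PaCa-2; DC50 taken as half-maximal degradation concentration.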

Molecule | EC50 ([1]; 72 hr) | IC50 (KRAS(G12C) [2]) | DC50 (KRAS(G12C) [3]) | EC50 ([1]; Homo sapiens, MIA PaCa-2, 72 h)
C=CC(=O)N1CCN(c2nc(OCCN3CCC(C(=O)N4CCN(Cc5ccc(-n6c(C(=O)NCC(F)(F)F)nnc6-c6cc(C)c(O)cc6O)cc5)CC4)CC3)nc3c2CCN(c2cccc4cccc(Cl)c24)C3)C[C@@H]1CC#N [Compound 251, (S)-4-(4-((4-(1-(2-((4-(4-acryloyl-3-(cyanomethyl)piperazin-1-yl)-7-(8-chloronaphthalen-1-yl)-5,6,7,8-tetrahydropyrido[3,4-d]pyrimidin-2-yl)oxy)ethyl)piperidine-4-carbonyl)piperazin-1-yl)methyl)phenyl)-5-(2,4-dihydroxy-5-methylphenyl)-N-(2,2,2-trifluoroethyl)-4H-1,2,4-triazole-3-carboxamide] | 100 to 1000 nM | < 100 nM | > 1000 nM | 
C=CC(=O)N1CCN(c2nc(OC[C@@H]3CC[C@H](CN4CCN(Cc5ccc(-n6c(O)nnc6-c6cc(C(C)C)c(O)cc6O)cc5)CC4)N3C)nc3c2CCN(c2cccc(C)c2C)C3)C[C@@H]1CC#N [Compound 281, 2-[(2S)-4-(2-{[(2S,5R)-5-{[4-({4-[3-(2,4-dihydroxy-5-isopropylphenyl)-5-hydroxy-1,2,4-triazol-4-yl]phenyl}methyl)piperazin-1-yl]methyl}-1-methylpyrrolidin-2-yl]methoxy}-7-(2,3-dimethylphenyl)-5H,6H,8H-pyrido[3,4-d]pyrimidin-4-yl)-1-(prop-2-enoyl)piperazin-2-yl]acetonitrile] |  | < 100 nM | 100 to 1000 nM | 100 to 1000 nM
C=CC(=O)N1CCN(c2nc(OC[C@@H]3CC[C@H](CN4CCN(C(=O)C5CCN(Cc6ccc(-n7c(O)nnc7-c7cc(CC)c(O)cc7O)cc6)CC5)CC4)N3C)nc3c2CCN(c2cccc4cccc(Cl)c24)C3)C[C@@H]1CC#N [Compound 245, 2-[(2S)-4-[7-(8-chloronaphthalen-1-yl)-2-{[(2S,5R)-5-({4-[1-({4-[3-(5-ethyl-2,4-di hydroxyphenyl)-5-hydroxy-1,2,4-triazol-4-yl]phenyl}methyl)piperidine-4-carbonyl]piperazin-1-yl}methyl)-1-methylpyrrolidin-2-yl]methoxy}-5H,6H,8H-pyrido [3,4-d]pyrimidin-4-yl]-1-(prop-2-enoyl)piperazin-2-yl]acetonitrile] |  | < 100 nM | > 1000 nM | 100 to 1000 nM
C=CC(=O)N1CCN(c2nc(OCCN3CCC(N4CCN(Cc5ccc(-n6c(O)nnc6-c6cc(C(C)C)c(O)cc6O)cc5)CC4)CC3)nc3c2CCN(c2cccc4cccc(Cl)c24)C3)C[C@@H]1CC#N [Compound 237, (S)-2-(1-acryloyl-4-(7-(8-chloronaphthalen-1-yl)-2-(2-(4-(4-(4-(3-(2,4-dihydroxy-5-isopropylphenyl)-5-hydroxy-4H-1,2,4-triazol-4-yl)benzyl)piperazin-1-yl)piperidin-1-yl)ethoxy)-5,6,7,8-tetrahydropyrido[3,4-d]pyrimidin-4-yl)piperazin-2-yl)acetonitrile] |  | 100 to 1000 nM | > 1000 nM | 100 to 1000 nM
C=CC(=O)N1CCN(c2nc(OC[C@@H]3C[C@H](N4CCC(C(=O)N5CCN(Cc6ccc(-n7c(O)nnc7-c7cc(C(C)C)c(O)cc7O)cc6)CC5)CC4)CN3C)nc3c2CCN(c2cccc4ccccc24)C3)C[C@@H]1CC#N [Compound 246, 2-[(2S)-4-(2-{[(2S,4S)-4-{4-[4-({4-[3-(2,4-dihydroxy-5-isopropylphenyl)-5-hydro-xy-1,2,4-triazol-4-yl]phenyl}methyl)piperazine-1-carbonyl]piperidin-1-yl}-1-methylpyrrolidin-2-yl]methoxy}-7-(naphthalen-1-yl)-5H,6H,8H-pyrido[3,4-d]pyrimidin-4-yl)-1-(prop-2-enoyl)piperazin-2-yl]acetonitrile] |  | < 100 nM | > 1000 nM | 100 to 1000 nM
C=CC(=O)N1CCN(c2nc(OCC3(CN4CCN(Cc5ccc(-n6c(O)nnc6-c6cc(C(C)C)c(O)cc6O)cc5)CC4)CC3)nc3c2CCN(c2cccc4cccc(Cl)c24)C3)C[C@@H]1CC#N [Compound 284, 2-[(2S)-4-[7-(8-chloronaphthalen-1-yl)-2-[(1-{[4-({4-[3-(2,4-dihydroxy-5-isopropylphenyl)-5-hydroxy-1,2,4-triazol-4-yl]phenyl}methyl)piperazin-1-yl]methyl}cyclopropyl)methoxy]-5H,6H,8H-pyrido[3,4-d]pyrimidin-4-yl]-1-(prop-2-enoyl)piperazin-2-yl]acetonitrile] |  | < 100 nM | 100 to 1000 nM | 100 to 1000 nM
C=CC(=O)N1CCN(c2nc(OC[C@@H]3C[C@H](N4CCN(CC5CCN(Cc6ccc7c(c6)CN(C(=O)c6cc(C(C)C)c(O)cc6O)C7)CC5)CC4)CN3C)nc3c2CCN(c2cccc4cccc(Cl)c24)C3)C[C@@H]1CC#N [Compound 290, 2-[(2S)-4-[7-(8-chloronaphthalen-1-yl)-2-{[(2S,4S)-4-{4-[(1-{[2-(2,4-dihydroxy-5-isopropylbenzoyl)-1,3-dihydroisoindol-5-yl]methyl}piperidin-4-yl)methyl]piperazin-1-yl}-1-methylpyrrolidin-2-yl]methoxy}-5H,6H,8H-pyrido[3,4-d]pyrimidin-4-yl]-1-(prop-2-enoyl)piperazin-2-yl]acetonitrile] |  | < 100 nM | > 1000 nM | < 100 nM
C=CC(=O)N1CCN(c2nc(OC[C@@H]3CC[C@H](CN4CCN(C(=O)C5CCN(Cc6ccc(-n7c(C(=O)NCC)nnc7-c7cc(C(C)C)c(O)cc7O)cc6)CC5)CC4)N3C)nc3c2CCN(c2cccc4cccc(C)c24)C3)C[C@@H]1CC#N [Compound 274, 4-(4-{[4-(4-{[(2R,5S)-5-[({4-[(3S)-3-(cyanomethyl)-4-(prop-2-enoyl)piperazin-1-yl]-7-(8-methylnaphthalen-1-yl)-5H,6H,8H-pyrido[3,4-d]pyrimidin-2-yl}oxy)methyl]-1-methylpyrrolidin-2-yl]methyl}piperazine-1-carbonyl)piperidin-1-yl]methyl}phenyl)-5-(2,4-dihydroxy-5-isopropylphenyl)-N-ethyl-1,2,4-triazole-3-carboxamide] |  | < 100 nM | > 1000 nM | 100 to 1000 nM
(S)-4-(4-((4-(1-(2-((4-(4-acryloyl-3-(cyanomethyl)piperazin-1-yl)-7-(8-chloronaphthalen-1-yl)-5,6,7,8-tetrahydropyrido[3,4-d]pyrimidin-2-yl)oxy)ethyl)piperidine-4-carbonyl)piperazin-1-yl)methyl)phenyl)-5-(2,4-dihydroxy-5-methylphenyl)-N-(2,2,2-trifluoroethyl)-4H-1,2,4-triazole-3-carboxamide [Compound 257] | 100 to 1000 nM | < 100 nM | 100 to 1000 nM | 
C=CC(=O)N1CCN(c2nc(OCCN3CCC(C(=O)N4CCN(Cc5ccc(-n6c(C(=O)NCC(F)(F)F)nnc6-c6cc(C)c(O)cc6O)cc5)CC4)CC3)nc3c2CCN(c2cccc4cccc(Cl)c24)C3)C[C@@H]1CC#N [Compound 250, (S)-4-(4-((4-(1-(2-((4-(4-acryloyl-3-(cyanomethyl)piperazin-1-yl)-7-(8-chloronaphthalen-1-yl)-5,6,7,8-tetrahydropyrido[3,4-d]pyrimidin-2-yl)oxy)ethyl)piperidine-4-carbonyl)piperazin-1-yl)methyl)phenyl)-5-(2,4-dihydroxy-5-methylphenyl)-N-(2,2,2-trifluoroethyl)-4H-1,2,4-triazole-3-carboxamide] | 100 to 1000 nM | < 100 nM | > 1000 nM | 
C=CC(=O)N1CCN(c2nc(OC[C@@H]3C[C@H](N4CCN(Cc5ccc(-n6c(O)nnc6-c6cc(C(C)C)c(O)cc6O)cc5)CC4)CN3C)nc3c2CCN(c2cccc4cccc(Cl)c24)C3)C[C@@H]1CC#N [Compound 241, 2-[(2S)-4-[7-(8-chloronaphthalen-1-yl)-2-{[(2S,4S)-4-[4-({4-[3-(2,4-dihydroxy-5-isopropylphenyl)-5-hydroxy-1,2,4-triazol-4-yl]phenyl}methyl)piperazin-1-yl]-1-methylpyrrolidin-2-yl]methoxy}-5H,6H,8H-pyrido[3,4-d]pyrimidin-4-yl]-1-(prop-2-enoyl)piperazin-2-yl]acetonitrile] |  | < 100 nM | > 1000 nM | 100 to 1000 nM
C=CC(=O)N1CCN(c2nc(OCC3(CN4CCN(Cc5ccc(-n6c(C(=O)NCC)nnc6-c6cc(C(C)C)c(O)cc6O)cc5)CC4)CC3)nc3c2CCN(c2cccc4cccc(Cl)c24)C3)C[C@@H]1CC#N [Compound 285, 4-{4-[(4-{[1-({[7-(8-chloronaphthalen-1-yl)-4-[(3S)-3-(cyanomethyl)-4-(prop-2-enoyl)piperazin-1-yl]-5H,6H,8H-pyrido[3,4-d]pyrimidin-2-yl]oxy}methyl)cyclopropyl]methyl}piperazin-1-yl)methyl]phenyl}-5-(2,4-dihydroxy-5-isopropylphenyl)-N-ethyl-1,2,4-triazole-3-carboxamide] |  | < 100 nM | 100 to 1000 nM | < 100 nM
